{"source": "patent US20110071220A1", "about": "“Use of Tetronic Acid Derivatives for Fighting Insects and Red Spider Mites by Watering on the Ground, Droplet Application or Immersion Application” (Bayer CropScience AG, priority 2008, published 2011)", "type_in_all_cases": "in vivo", "key": {"[1]": {"test_system": "whiteflies (Bemisia tabaci)", "assay": "Bemisia tabaci test on tomatoes, drench application in rock wool", "details": "5 mg of ai/plant; tomato plants in rock wool; days between application and infestation −11; mortality determined 25 days after infestation", "method": "(§1) To produce a suitable solution, the product is mixed with water and diluted with water to the desired concentration. The desired amount of additive is added to the mixtures.\nTomato plants (Solanum lycopersicum) are cultivated in rock wool and infested with whiteflies (Bemisia tabaci). At the 2-leaf stage, the product solution in question is applied to the rock wool. The stated concentration refers to the amount of active compound per plant.\n(§2) After the desired period of time, the effect in % is determined. 100% means that all the whiteflies have been killed; 0% means that none of the whiteflies have been killed."}, "[2]": {"test_system": "greenhouse red spider mite (Tetranychus urticae)", "assay": "Tetranychus urticae test, soil application in rock wool (eggplants)", "details": "10 mg of ai/plant", "method": "To produce a suitable solution, the product is mixed with water and diluted with water to the desired concentration. The desired amount of additive is added to the mixtures. Eggplants (Solanum melongena) are cultivated in rock wool. At the 4-leaf stage, the product solution in question is applied to the rock wool. The stated concentration refers to the amount of active compound per plant.\nAt the desired point in time, the plants are infested with a mixed population of the greenhouse red spider mite (Tetranychus urticae).\nAfter the desired period of time, the effect in % is determined. 100% means that all spider mites have been killed; 0% means that none of the spider mites have been killed."}, "[3]": {"test_system": "whiteflies (Bemisia tabaci)", "assay": "Bemisia tabaci test on cucumbers, drench application in rock wool", "details": "20 mg of ai/plant, days between application and infestation −11, mortality determined 18 days after infestation", "method": "as §1\nCucumbers (Cucumis sativa) are cultivated in rock wool and infested with whiteflies (Bemisia tabaci). At the 2-leaf stage, the product solution in question is applied to the rock wool. The stated concentration refers to the amount of active compound per plant.\nas §2"}}}
{"smiles": "Cc1cc(C)c(C2=C(OC(=O)CC(C)(C)C)C3(CCCC3)OC2=O)c(C)c1", "note": "[spiromesifen (II-2), spiromesifen]", "values": [{"measurement": "Mortality", "setting": "[1]", "value": 80, "unit": "%"}, {"measurement": "Mortality", "setting": "[2]; days between application and infestation 14, mortality determined 14 days after infestation", "value": 20, "unit": "%"}, {"measurement": "Mortality", "setting": "[2]; days between application and infestation −1, mortality determined 7 days after infestation", "value": 30, "unit": "%"}, {"measurement": "Mortality", "setting": "[2]; days between application and infestation −1, mortality determined 14 days after infestation", "value": 10, "unit": "%"}, {"measurement": "Mortality", "setting": "[3]", "value": 0, "unit": "%"}]}
